“And” between values parts separate entries of the source, which are not always exact repeats. Equal values may be shown once.
Experiments:
Rattus norvegicus [1] = details: subchronic; oral; diet; M; Fischer 344; Body Weight Changes: decrease + Blood Chemistry: Alp increase, Bile acid increase, ALT increase, SDH increase + Absolute Organ Weight: Liver…
Rattus norvegicus [2] = details: short-term, duration: 28 days, oral, gavage, Sprague-Dawley

Cc1cccc(Nc2cc(Cl)nc(SCC(=O)O)n2)c1C [[4-Chloro-6-(2,3-xylidino)-2-pyrimidinylthio]acetic acid]
NOEL (Rattus norvegicus [1]): < 0.48 mg/kg-day
LOEL (Rattus norvegicus [2]; F, Clinical chemistry_Alanine aminotransferase): 25 mg/kg-day
LOEL (Rattus norvegicus [2]; F, Clinical chemistry_Albumin): 6.25 mg/kg-day
LOEL (Rattus norvegicus [2]; F, Clinical chemistry_Albumin/globulin ratio): 6.25 mg/kg-day
LOEL (Rattus norvegicus [2]; F, Clinical chemistry_Alkaline phosphatase): 6.25 mg/kg-day
LOEL (Rattus norvegicus [2]; F, Clinical chemistry_Aspartate aminotransferase): 25 mg/kg-day
NOEL (Rattus norvegicus [2]; F, Clinical chemistry_Cholesterol): 25 mg/kg-day
NOEL (Rattus norvegicus [2]; F, Clinical chemistry_Creatinine kinase): 25 mg/kg-day
NOEL (Rattus norvegicus [2]; F, Clinical chemistry_Direct bilirubin): 25 mg/kg-day
NOEL (Rattus norvegicus [2]; F, Clinical chemistry_Free thyroxine): 25 mg/kg-day
LOEL (Rattus norvegicus [2]; F, Clinical chemistry_Globulin): 6.25 mg/kg-day
NOEL (Rattus norvegicus [2]; F, Clinical chemistry_Indirect bilirubin): 25 mg/kg-day
LOEL (Rattus norvegicus [2]; F, Clinical chemistry_Sorbitol dehydrogenase): 6.25 mg/kg-day
NOEL (Rattus norvegicus [2]; F, Clinical chemistry_T bilirubin): 25 mg/kg-day
LOEL (Rattus norvegicus [2]; F, Clinical chemistry_Testosterone): 6.25 mg/kg-day
LOEL (Rattus norvegicus [2]; F, Clinical chemistry_Thyroid stimulating hormone): 6.25 mg/kg-day
NOEL (Rattus norvegicus [2]; F, Clinical chemistry_Total bile acids): 25 mg/kg-day
NOEL (Rattus norvegicus [2]; F, Clinical chemistry_Total bilirubin): 25 mg/kg-day
LOEL (Rattus norvegicus [2]; F, Clinical chemistry_Total protein): 12.5 mg/kg-day
NOEL (Rattus norvegicus [2]; F, Clinical chemistry_Total thyroxine): 25 mg/kg-day
LOEL (Rattus norvegicus [2]; F, Clinical chemistry_Total triiodothyronine): 12.5 mg/kg-day and 6.25 mg/kg-day
NOEL (Rattus norvegicus [2]; F, Clinical chemistry_Triglycerides): 25 mg/kg-day
LOEL (Rattus norvegicus [2]; F, Gene expression_Acox1): 6.25 mg/kg-day
LOEL (Rattus norvegicus [2]; F, Gene expression_Cyp2b1): 6.25 mg/kg-day
LOEL (Rattus norvegicus [2]; F, Gene expression_Cyp2b2): 6.25 mg/kg-day
LOEL (Rattus norvegicus [2]; F, Gene expression_Cyp4a1): 6.25 mg/kg-day
NOEL (Rattus norvegicus [2]; F, Hematology_Erythrocytes): 25 mg/kg-day
NOEL (Rattus norvegicus [2]; F, Hematology_Hematocrit): 25 mg/kg-day
NOEL (Rattus norvegicus [2]; F, Hematology_Hemoglobin): 25 mg/kg-day
NOEL (Rattus norvegicus [2]; F, Hematology_Leukocytes): 25 mg/kg-day
NOEL (Rattus norvegicus [2]; F, Hematology_Mean corpuscular hemoglobin concentration): 25 mg/kg-day
NOEL (Rattus norvegicus [2]; F, Hematology_Mean corpuscular volume): 25 mg/kg-day
NOEL (Rattus norvegicus [2]; F, Hematology_Platelets): 25 mg/kg-day
NOEL (Rattus norvegicus [2]; F, Hematology_Reticulocytes): 25 mg/kg-day
NOEL (Rattus norvegicus [2]; F, Hematology_S. neutrophils): 25 mg/kg-day
NOEL (Rattus norvegicus [2]; F, Nonneoplastic effects_Bone marrow - Hypocellularity): 25 mg/kg-day
NOEL (Rattus norvegicus [2]; F, Nonneoplastic effects_Kidney - Papilla, necrosis): 25 mg/kg-day
NOEL (Rattus norvegicus [2]; F, Nonneoplastic effects_Liver - Hepatocyte, Necrosis): 25 mg/kg-day
LOEL (Rattus norvegicus [2]; F, Nonneoplastic effects_Liver - Hepatocyte, cytoplasmic alteration): 6.25 mg/kg-day
LOEL (Rattus norvegicus [2]; F, Nonneoplastic effects_Liver - Hepatocyte, hypertrophy): 25 mg/kg-day
NOEL (Rattus norvegicus [2]; F, Nonneoplastic effects_Liver - Hepatocyte, vacuolization cytoplasmic): 25 mg/kg-day
NOEL (Rattus norvegicus [2]; F, Nonneoplastic effects_Liver - Necrosis): 25 mg/kg-day
NOEL (Rattus norvegicus [2]; F, Nonneoplastic effects_Nose - Olfactory epithelium, degeneration): 25 mg/kg-day
NOEL (Rattus norvegicus [2]; F, Nonneoplastic effects_Nose - Olfactory epithelium, hyperplasia): 25 mg/kg-day
NOEL (Rattus norvegicus [2]; F, Nonneoplastic effects_Nose - Olfactory epithelium, inflammation, suppurative): 25 mg/kg-day
NOEL (Rattus norvegicus [2]; F, Nonneoplastic effects_Nose - Olfactory epithelium, necrosis): 25 mg/kg-day
NOEL (Rattus norvegicus [2]; F, Nonneoplastic effects_Spleen - Extramedullary hematopoiesis, decreased): 25 mg/kg-day
NOEL (Rattus norvegicus [2]; F, Nonneoplastic effects_Stomach, forestomach - Epithelium, hyperplasia): 25 mg/kg-day
NOEL (Rattus norvegicus [2]; F, Nonneoplastic effects_Thymus - Atrophy): 25 mg/kg-day
NOEL (Rattus norvegicus [2]; F, Organ weights_Heart - Absolute): 25 mg/kg-day
NOEL (Rattus norvegicus [2]; F, Organ weights_Heart - Relative): 25 mg/kg-day
LOEL (Rattus norvegicus [2]; F, Organ weights_Liver - Absolute): 6.25 mg/kg-day
LOEL (Rattus norvegicus [2]; F, Organ weights_Liver - Relative): 6.25 mg/kg-day
NOEL (Rattus norvegicus [2]; F, Organ weights_Lung - Absolute): 25 mg/kg-day
NOEL (Rattus norvegicus [2]; F, Organ weights_Lung - Relative): 25 mg/kg-day
NOEL (Rattus norvegicus [2]; F, Organ weights_R. adrenal gland - Absolute): 25 mg/kg-day
NOEL (Rattus norvegicus [2]; F, Organ weights_R. adrenal gland - Relative): 25 mg/kg-day
LOEL (Rattus norvegicus [2]; F, Organ weights_R. kidney - Absolute): 6.25 mg/kg-day
LOEL (Rattus norvegicus [2]; F, Organ weights_R. kidney - Relative): 6.25 mg/kg-day
NOEL (Rattus norvegicus [2]; F, Organ weights_Spleen - Absolute): 25 mg/kg-day
NOEL (Rattus norvegicus [2]; F, Organ weights_Spleen - Relative): 25 mg/kg-day
NOEL (Rattus norvegicus [2]; F, Organ weights_Thymus - Absolute): 25 mg/kg-day
NOEL (Rattus norvegicus [2]; F, Organ weights_Thymus - Relative): 25 mg/kg-day
NOEL (Rattus norvegicus [2]; F, Organ weights_Thyroid gland - Absolute): 25 mg/kg-day
NOEL (Rattus norvegicus [2]; F, Organ weights_Thyroid gland - Relative): 25 mg/kg-day
LOEL (Rattus norvegicus [2]; F, Reproductive toxicity_Altered estrous cyclicity): 6.25 mg/kg-day
NOEL (Rattus norvegicus [2]; F, Survival rates): 25 mg/kg-day
NOEL (Rattus norvegicus [2]; F, body weight): 25 mg/kg-day
LOEL (Rattus norvegicus [2]; M, Clinical chemistry_Alanine aminotransferase): 6.25 mg/kg-day
LOEL (Rattus norvegicus [2]; M, Clinical chemistry_Albumin): 6.25 mg/kg-day
LOEL (Rattus norvegicus [2]; M, Clinical chemistry_Albumin/globulin ratio): 6.25 mg/kg-day
LOEL (Rattus norvegicus [2]; M, Clinical chemistry_Alkaline phosphatase): 6.25 mg/kg-day
LOEL (Rattus norvegicus [2]; M, Clinical chemistry_Aspartate aminotransferase): 25 mg/kg-day
LOEL (Rattus norvegicus [2]; M, Clinical chemistry_Cholesterol): 6.25 mg/kg-day
NOEL (Rattus norvegicus [2]; M, Clinical chemistry_Creatinine kinase): 25 mg/kg-day
LOEL (Rattus norvegicus [2]; M, Clinical chemistry_Direct bilirubin): 25 mg/kg-day
